Reference: patent publication US3957779A, “Benzo-1,2,4-triazines” (Bayer Aktiengesellschaft, priority 1972, dated 1976)
≈ marks a conversion by molar mass, not a printed value.

Columns and labels:
Assay type in all cases: cell-based
Mycoplasma bovirhinis = experiment: MIC, series dilution test, PPLO-medium (Table 1); conditions: 37°C, 18, 24 and 48 hours, read-out: Minimum inhibitory concentration (MIC)
Protocol: (§1) The mycoplasmae were tested in the series dilution test (PPLO-medium) at 37°C, with observations after 18, 24 and 48 hours.

Mycoplasma granularum = experiment: MIC, series dilution test, PPLO-medium (Table 1); conditions: Acholeplasma granularum, 37°C, 18, 24 and 48 hours, read-out: Minimum inhibitory concentration (MIC)
Protocol: as §1

Mycoplasma gallisepticum = experiment: MIC, series dilution test, PPLO-medium (Table 1); conditions: Mycoplasmoides gallisepticum, 37°C, 18, 24 and 48 hours, read-out: Minimum inhibitory concentration (MIC)
Protocol: as §1

Escherichia coli A261 = experiment: MIC, plate test (Table 1); conditions: 37°C, 24 hours, read-out: Minimum inhibitory concentration (MIC)
Protocol: (§2) The minimum inhibitory concentration (MIC) was determined in the plate test on a complete nutrient base of the following composition: 10 g of proteose-peptone, 10 g of veal infusion, 2 g of dextrose, 3 g of sodium chloride, 2 g of disodium phosphate, 1 g of sodium acetate, 0.01 g of adenine sulphate, 0.01 g of guanine hydrochloride, 0.01 g of uracil, 0.01 g. of xantin, 12 g of agar-agar and 1 liter of water.
(§3) The incubation temperature was 37°C and the incubation time was 24 hours.

[1] = test system: Staphylococcus aureus 133; experiment: MIC, plate test (Table 1); conditions: 37°C, 24 hours, read-out: Minimum inhibitory concentration (MIC)
Protocol: as §2, §3

Salmonella species [2] = experiment: MIC, plate test (Table 1); conditions: 37°C, 24 hours, read-out: Minimum inhibitory concentration (MIC)
Protocol: as §2, §3

Streptococcus pyogenes = experiment: MIC, plate test (Table 1); conditions: with serum, 37°C, 24 hours, read-out: Minimum inhibitory concentration (MIC)
Protocol: as §2, §3

Pseudomonas aeruginosa B [3] = experiment: MIC, plate test (Table 1); conditions: 37°C, 24 hours, read-out: Minimum inhibitory concentration (MIC)
Protocol: as §2, §3

Klebsiella 63 = experiment: MIC, plate test (Table 1); conditions: 37°C, 24 hours, read-out: Minimum inhibitory concentration (MIC)
Protocol: as §2, §3

Escherichia coli C165 = experiment: MIC, plate test (Table 1); conditions: 37°C, 24 hours, read-out: Minimum inhibitory concentration (MIC)
Protocol: as §2, §3

Pseudomonas aeruginosa w [4] = experiment: MIC, plate test (Table 1); conditions: 37°C, 24 hours, read-out: Minimum inhibitory concentration (MIC)
Protocol: as §2, §3

Proteus vulgaris 1017 [5] = experiment: MIC, plate test (Table 1); conditions: 37°C, 24 hours, read-out: Minimum inhibitory concentration (MIC)
Protocol: as §2, §3

Klebsiella 8085 = experiment: MIC, plate test (Table 1); conditions: 37°C, 24 hours, read-out: Minimum inhibitory concentration (MIC)
Protocol: as §2, §3

[6] = test system: Mycobacterium tuberculosis; experiment: MIC, series dilution test, Jenssen egg medium; conditions: 37°C, read-out: minimum inhibitory concentration
Protocol: The compounds of Examples 12 and 13 show minimum inhibitory concentrations of 32 γ/ml of nutrient medium in the series dilution test, Jenssen egg medium, 37°C, against Mycobacterium tuberculosis.

Pseudomonas aeruginosa w [7] = experiment: Turbidity test in Mueller-Hinton nutrient solution; conditions: 100 γ/ml, 24 hours, 37°C
[8] = test system: Proteus indole-positive, species; experiment: Turbidity test in Mueller-Hinton nutrient solution; conditions: 100 γ/ml, 24 hours, 37°C
Escherichia coli C 165 = experiment: Turbidity test in Mueller-Hinton nutrient solution; conditions: 100 γ/ml, 24 hours, 37°C
Escherichia coli 14 = experiment: Turbidity test in Mueller-Hinton nutrient solution; conditions: 100 γ/ml, 24 hours, 37°C
Streptococcus pyogenes W = experiment: Turbidity test in Mueller-Hinton nutrient solution; conditions: 100 γ/ml, 24 hours, 37°C
Serratia species = experiment: Turbidity test in Mueller-Hinton nutrient solution; conditions: 100 γ/ml, 24 hours, 37°C
Clostridium botulinium = test system: Clostridium botulinium
[9] = test system: Pasteurella pseudotuberculosis; conditions: 100 γ/ml, 24 hours, 37°C
Proteus vulgaris 1017 [10] = experiment: Turbidity test in Mueller-Hinton nutrient solution; conditions: 100 γ/ml, 24 hours, 37°C
[11] = test system: Corynebacterium diphtheriae gravis; experiment: Turbidity test in Mueller-Hinton nutrient solution; conditions: 100 γ/ml, 24 hours, 37°C
Clostridium tetani = conditions: 100 γ/ml, 24 hours, 37°C
[12] = test system: Neisseria catarrhalis species; experiment: Turbidity test in Mueller-Hinton nutrient solution; conditions: 100 γ/ml, 24 hours, 37°C
Borrelia species = experiment: Turbidity test in Mueller-Hinton nutrient solution; conditions: 100 γ/ml, 24 hours, 37°C
[13] = test system: Diplococcus pneumoniae species; experiment: Turbidity test in Mueller-Hinton nutrient solution; conditions: 100 γ/ml, 24 hours, 37°C
Enterobacter species = experiment: Turbidity test in Mueller-Hinton nutrient solution; conditions: 100 γ/ml, 24 hours, 37°C
Bacteroides species = experiment: Turbidity test in Mueller-Hinton nutrient solution; conditions: 100 γ/ml, 24 hours, 37°C
[14] = test system: Haemophilus influenzae 281; experiment: Turbidity test in Mueller-Hinton nutrient solution; conditions: 100 γ/ml, 24 hours, 37°C
Escherichia coli A 261 = experiment: Turbidity test in Mueller-Hinton nutrient solution; conditions: 100 γ/ml, 24 hours, 37°C
Salmonella species [15] = experiment: Turbidity test in Mueller-Hinton nutrient solution; conditions: 100 γ/ml, 24 hours, 37°C
Protocol: (§4) 100 γ/ml of the compounds according to the invention are dissolved in Mueller-Hinton nutrient solution, with addition of 0.1% of glucose. The nutrient solution contains […] microbes per ml. The mixture is incubated in glass test tubes for 24 hours at 37°C and after this time the degree of turbidity is determined.

Shigella species = experiment: Turbidity test in Mueller-Hinton nutrient solution; conditions: 100 γ/ml, 24 hours, 37°C
Protocol: as §4

Pseudomonas aeruginosa B [16] = experiment: Turbidity test in Mueller-Hinton nutrient solution; conditions: 100 γ/ml, 24 hours, 37°C
Enterococcus species = experiment: Turbidity test in Mueller-Hinton nutrient solution; conditions: 100 γ/ml, 24 hours, 37°C
Brucella species = conditions: 100 γ/ml, 24 hours, 37°C
[17] = test system: Proteus indole-negative, species; experiment: Turbidity test in Mueller-Hinton nutrient solution; conditions: 100 γ/ml, 24 hours, 37°C
[18] = test system: Corynebacterium pyogenes M; experiment: Turbidity test in Mueller-Hinton nutrient solution; conditions: 100 γ/ml, 24 hours, 37°C
Klebsiella K 63 = experiment: Turbidity test in Mueller-Hinton nutrient solution; conditions: 100 γ/ml, 24 hours, 37°C
[19] = test system: Bordetella bronchiseptica; experiment: Turbidity test in Mueller-Hinton nutrient solution; conditions: 100 γ/ml, 24 hours, 37°C
Klebsiella K 10 = experiment: Turbidity test in Mueller-Hinton nutrient solution; conditions: 100 γ/ml, 24 hours, 37°C
Lactobacillus species = experiment: Turbidity test in Mueller-Hinton nutrient solution; conditions: 100 γ/ml, 24 hours, 37°C
[20] = test system: Staphylococcus aureus 133; experiment: Turbidity test in Mueller-Hinton nutrient solution; conditions: 100 γ/ml, 24 hours, 37°C
[21] = test system: Aeromonas hydrophila species; experiment: Turbidity test in Mueller-Hinton nutrient solution; conditions: 100 γ/ml, 24 hours, 37°C

CCC(=O)Nc1n[n+]([O-])c2ccccc2[n+]1[O-] [Example 3, 3-(N-propionylamino)-benzo-1,2,4-triazine-1,4-di-N-oxide]
MIC (Mycoplasma bovirhinis): < 0.125 µg/mL
MIC (Mycoplasma granularum): < 0.125 µg/mL
MIC (Mycoplasma gallisepticum): < 0.125 µg/mL
MIC (Escherichia coli A261): 4 µg/mL (≈ 17.1 µM)
MIC [1]: 1 µg/mL (≈ 4.27 µM)
MIC (Salmonella species [2]): 4 µg/mL (≈ 17.1 µM)
MIC (Streptococcus pyogenes): 128 µg/mL (≈ 547 µM)
MIC (Pseudomonas aeruginosa B [3]): 128 µg/mL (≈ 547 µM)
MIC (Klebsiella 63): 4 µg/mL (≈ 17.1 µM)
MIC (Escherichia coli C165): 4 µg/mL (≈ 17.1 µM)
MIC (Pseudomonas aeruginosa w [4]): 128 µg/mL (≈ 547 µM)
MIC (Proteus vulgaris 1017 [5]): 1 µg/mL (≈ 4.27 µM)
MIC (Klebsiella 8085): 1 µg/mL (≈ 4.27 µM)

CNC(=O)Nc1n[n+]([O-])c2ccccc2[n+]1[O-] [Example 7, 1'-methyl-3'-[1,4-dioxo-benzo-1,2,4-triazin-3-yl]-urea]
MIC (Escherichia coli A261): 4 µg/mL (≈ 17 µM)
MIC [1]: 1 µg/mL (≈ 4.25 µM)
MIC (Salmonella species [2]): 4 µg/mL (≈ 17 µM)
MIC (Streptococcus pyogenes): 1 µg/mL (≈ 4.25 µM)
MIC (Pseudomonas aeruginosa B [3]): 128 µg/mL (≈ 544 µM)
MIC (Klebsiella 63): 8 µg/mL (≈ 34 µM)
MIC (Escherichia coli C165): 4 µg/mL (≈ 17 µM)
MIC (Pseudomonas aeruginosa w [4]): 128 µg/mL (≈ 544 µM)
MIC (Proteus vulgaris 1017 [5]): 1 µg/mL (≈ 4.25 µM)
MIC (Klebsiella 8085): 1 µg/mL (≈ 4.25 µM)

CNC(=O)Nc1n[n+]([O-])c2ccccc2[n+]1[O-] [Example 12, 1'-[1,4-dioxo-benzo-1,2,4-triazin-3-yl]-3'-methylurea]
MIC [6]: 32 µg/mL (≈ 136 µM)
turbidity after incubation (Pseudomonas aeruginosa w [7]): remained free of turbidity
turbidity after incubation [8]: remained free of turbidity
turbidity after incubation (Escherichia coli C 165): remained free of turbidity
turbidity after incubation (Escherichia coli 14): remained free of turbidity
turbidity after incubation (Streptococcus pyogenes W): remained free of turbidity
turbidity after incubation (Serratia species): remained free of turbidity
turbidity after incubation (Clostridium botulinium): remained free of turbidity
turbidity after incubation [9]: remained free of turbidity
turbidity after incubation (Proteus vulgaris 1017 [10]): remained free of turbidity
turbidity after incubation [11]: remained free of turbidity
turbidity after incubation (Clostridium tetani): remained free of turbidity
turbidity after incubation [12]: remained free of turbidity
turbidity after incubation (Borrelia species): remained free of turbidity
turbidity after incubation [13]: remained free of turbidity
turbidity after incubation (Enterobacter species): remained free of turbidity
turbidity after incubation (Bacteroides species): remained free of turbidity
turbidity after incubation [14]: remained free of turbidity
turbidity after incubation (Escherichia coli A 261): remained free of turbidity
turbidity after incubation (Salmonella species [15]): remained free of turbidity
turbidity after incubation (Shigella species): remained free of turbidity
turbidity after incubation (Pseudomonas aeruginosa B [16]): remained free of turbidity
turbidity after incubation (Enterococcus species): remained free of turbidity
turbidity after incubation (Brucella species): remained free of turbidity
turbidity after incubation [17]: remained free of turbidity
turbidity after incubation [18]: remained free of turbidity
turbidity after incubation (Klebsiella K 63): remained free of turbidity
turbidity after incubation [19]: remained free of turbidity
turbidity after incubation (Klebsiella K 10): remained free of turbidity
turbidity after incubation (Lactobacillus species): remained free of turbidity
turbidity after incubation [20]: remained free of turbidity
turbidity after incubation [21]: remained free of turbidity
